Measurements taken from US8232317B2, “Method for increasing hair growth” (E-L Management Corp., priority 2003, dated 2012).
“And” between values parts separate entries of the source, which are not always exact repeats. Equal entries are not always repeated.

Assays:
[1] = test system: Normal Human Dermal Papilla Cells; assay: DNA synthesis ([H]3-thymidine incorporation) in dermal papilla cells; assay type: cell-based; details: for [H] counts to denote incorporated Thymidine (relative DNA synthesis): individual replicates
Procedure: Methods: Normal Human Dermal Papilla Cells were obtained from Cell Applications Incorporated (San Diego, Calif.) which isolates the dermal papilla cells from hair plugs. Papilla cells were grown to 70% in 24 well plates. […] These treatments were carried out for 24 hours before [H]^3-Thymidine label (1 μCi/ml) was added in each well. DNA synthesis, an indicator of cell proliferation, was measured 24 hours later as a function of [H]^3-Thymidine incorporation.

[2] = test system: hair plugs; assay: Hair growth in hair plugs exposed to creatine; assay type: cell-based; details: creatine 1 mM; for Actual length of hair plugs / Hair growth normalized to length at day 0: individual plugs; for Average hair growth: n=6
Procedure: Methods: Hair plugs were obtained from East Wood Medical Hair Transplant Surgery (Garden City, N.Y.). These hair plugs were equilibrated in hair plug media as described in the literature (DMEM, 10% FBS, 1% PS, 25 mg insulin, 25 μg fungizone). These hair plugs were measured under the microscope one the first day of arrival and treated with creatine at 1 mM (n=6 for control and creatine group respectively). These hair plugs were then kept in the incubator at 37° C. in 5% CO2. On day 3, 7, & 10, re-treatments were made as well as measurements.

Row | Compound | % increase compared to control (thymidine uptake / DNA synthesis) ([1]; 0.25 mM) [%] | % increase compared to control (thymidine uptake / DNA synthesis) ([1]; 0.5 mM) [%] | Average thymidine uptake ([1]; 0.25 mM) | [H] counts to denote incorporated Thymidine (relative DNA synthesis) ([1]; 0.25 mM) | Average thymidine uptake ([1]; 0.5 mM) | [H] counts to denote incorporated Thymidine (relative DNA synthesis) ([1]; 0.5 mM) | % increase compared to control (thymidine uptake / DNA synthesis) ([1]; 1 mM) [%] | Average thymidine uptake ([1]; 1 mM) | [H] counts to denote incorporated Thymidine (relative DNA synthesis) ([1]; 1 mM) | also measured
1 | Nc1ncnc2c1ncn2[C@@H]1O[C@H](COP(=O)(O)OP(=O)(O)OP(=O)(O)O)[C@@H](O)[C@H]1O [ATP] | 1411 | 1201 |  |  |  |  |  |  |  | 
2 | O=C(O)CC(=O)C(=O)O [Oxaloacetate, oxaloacetic acid (oxaloacetate)] | 22 | 33 | 22609.37 | 26907.8 counts and 21897.4 counts and 19022.9 counts | 24782.97 | 24483.7 counts and 21467.8 counts and 28397.4 counts | 38 | 25586.67 | 25537.3 counts and 25092.4 counts and 26130.3 counts | % increase compared to control (thymidine uptake / DNA synthesis) ([1]; 0.25 mM, listed as Oxal): 21.57%; % increase compared to control (thymidine uptake / DNA synthesis) ([1]; 0.5 mM, listed as Oxal): 33.26%; % increase compared to control (thymidine uptake / DNA synthesis) ([1]; 1 mM, listed as Oxal): 37.58%
3 | Nc1ncnc2c1ncn2[C@@H]1O[C@H](COP(=O)(O)O)[C@@H](O)[C@H]1O [AMP] | 1493 | 1930 |  |  |  |  | 1449 |  |  | 
4 | CN(CC(=O)O)C(=N)N [Creatine, creatine] | 35.66 | 24.78 | 25229.47 | 27441.5 counts and 24848.2 counts and 23398.7 counts | 23206.37 | 21850.6 counts and 23029.9 counts and 24738.6 counts | 5.697 | 19657.6 | 20190.6 counts and 18789.8 counts and 19992.4 counts | % increase compared to control (thymidine uptake / DNA synthesis) ([1]; 0.25 mM, listed as creatine): 36%; % increase compared to control (thymidine uptake / DNA synthesis) ([1]; 0.5 mM, listed as creatine): 25%; % increase compared to control (thymidine uptake / DNA synthesis) ([1]; 1 mM, listed as creatine): 6%; Actual length of hair plugs ([2]; Day 0 (baseline)): 3.8 mm and 6.3 mm and 8.1 mm and 8.3 mm and 8.2 mm and 7.6 mm; Average hair growth ([2]; Day 0): 0 mm; % increase compared to untreated (hair growth) ([2]; Day 3): 96.6%; Actual length of hair plugs ([2]; Day 3): 4.7 mm and 7.1 mm and 9.5 mm and 9.1 mm (2×) and 8.5 mm; Hair growth normalized to length at day 0 ([2]; Day 3): 0.9 mm (3×) and 0.8 mm (2×) and 1.4 mm; Average hair growth ([2]; Day 3): 0.95 mm; % increase compared to untreated (hair growth) ([2]; Day 7): 79.5%; Actual length of hair plugs ([2]; Day 7): 5 mm and 7 mm and 9.6 mm (2×) and 9.8 mm and 9.2 mm; Hair growth normalized to length at day 0 ([2]; Day 7): 1.2 mm and 0.7 mm and 1.5 mm and 1.3 mm and 1.6 mm (2×); Average hair growth ([2]; Day 7): 1.32 mm and 1.317 mm; % increase compared to untreated (hair growth) ([2]; Day 10): 75.5%; Actual length of hair plugs ([2]; Day 10): 5.5 mm and 7 mm and 9.7 mm (2×) and 9.8 mm and 9.2 mm; Hair growth normalized to length at day 0 ([2]; Day 10): 1.7 mm and 0.7 mm and 1.6 mm (3×) and 1.4 mm; Average hair growth ([2]; Day 10): 1.43 mm and 1.433 mm; Increase in hair growth compared to the untreated plugs ([2]; over 10 days): two fold
